Read-outs that look alike come from different tables or passages of the source.
How the values were obtained:
Assay type in all cases: cell-based, human
[1] = tested on: UACC-62; test: NCI SRB growth inhibition (single dose 10 µM / five-dose); details: Homo sapiens; for inhibition at 10 µM: UACC-62 (Melanoma), read-out: GI%
How it was run: (§1)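 Percent growth relative to untreated control and time-zero cell mass, determined by SRB. Five drug levels (10-fold or half-log steps) plus control; time-zero plates fixed 24 h after seeding.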

[2] = tested on: OVCAR-5; test: as above; details: Homo sapiens; for inhibition at 10 µM: OVCAR-5 (Ovarian cancer), read-out: GI%
How it was run: as §1

[3] = tested on: OVCAR-8; test: as above; details: Homo sapiens; for inhibition at 10 µM: OVCAR-8 (Ovarian cancer), read-out: GI%
How it was run: as §1

[4] = tested on: A549/ATCC; test: as above; details: Homo sapiens; for inhibition at 10 µM: A549/ATCC (Non-small cell lung cancer), read-out: GI%
How it was run: as §1

[5] = tested on: HCC-2998; test: as above; details: Homo sapiens; for inhibition at 10 µM: HCC-2998 (Colon cancer), read-out: GI%
How it was run: as §1

[6] = tested on: UO-31; test: as above; details: Homo sapiens; for inhibition at 10 µM: UO-31 (Renal cancer), read-out: GI%
How it was run: as §1

[7] = tested on: MALME-3 M; test: as above; details: Homo sapiens; for inhibition at 10 µM: MALME-3 M (Melanoma), read-out: GI%
How it was run: as §1

[8] = tested on: UACC-257; test: as above; details: Homo sapiens; for inhibition at 10 µM: UACC-257 (Melanoma), read-out: GI%
How it was run: as §1

[9] = tested on: COLO 205; test: as above; details: Homo sapiens; for inhibition at 10 µM: COLO 205 (Colon cancer), read-out: GI%
How it was run: as §1

[10] = tested on: TK-10; test: as above; details: Homo sapiens; for inhibition at 10 µM: TK-10 (Renal cancer), read-out: GI%
How it was run: as §1

[11] = tested on: BT-549; test: as above; details: Homo sapiens; for inhibition at 10 µM: BT-549 (Breast cancer), read-out: GI%
How it was run: as §1

[12] = tested on: SR; test: as above; details: Homo sapiens; for inhibition at 10 µM: SR (Leukemia), read-out: GI%
How it was run: as §1

[13] = tested on: HCT-116; test: as above; details: Homo sapiens, HCT-116; for inhibition at 10 µM: read-out: GI%
How it was run: as §1

[14] = tested on: MCF7; test: as above; details: Homo sapiens; for inhibition at 10 µM: MCF7 (Breast cancer), read-out: GI%
How it was run: as §1

[15] = tested on: SW-620; test: as above; details: Homo sapiens; for inhibition at 10 µM: SW-620 (Colon cancer), read-out: GI%
How it was run: as §1

[16] = tested on: HS 578 T; test: as above; details: Homo sapiens; for inhibition at 10 µM: HS 578 T (Breast cancer), read-out: GI%
How it was run: as §1

[17] = tested on: MDA-MB-468; test: as above; details: Homo sapiens; for inhibition at 10 µM: MDA-MB-468 (Breast cancer), read-out: GI%
How it was run: as §1

[18] = tested on: CAKI-1; test: as above; details: Homo sapiens; for inhibition at 10 µM: CAKI-1 (Renal cancer), read-out: GI%
How it was run: as §1

[19] = tested on: SF-539; test: as above; details: Homo sapiens; for inhibition at 10 µM: SF-539 (CNS cancer), read-out: GI%
How it was run: as §1

[20] = tested on: MOLT-4; test: as above; details: Homo sapiens; for inhibition at 10 µM: MOLT-4 (Leukemia), read-out: GI%
How it was run: as §1

[21] = tested on: HL-60(TB); test: as above; details: Homo sapiens; for inhibition at 10 µM: HL-60(TB) (Leukemia), read-out: GI%
How it was run: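 Test agents were dissolved in DMSO at 400-fold the top final concentration, diluted in medium with 50 µg/mL gentamicin, and tested at five concentrations.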

[22] = tested on: 786–0; test: as above; details: Homo sapiens; for inhibition at 10 µM: 786–0 (Renal cancer), read-out: GI%
How it was run: as §1

[23] = tested on: NCI panel of 60 tumor cell lines; test: NCI SRB growth inhibition, whole panel mean (single dose 10 µM / five-dose); details: Homo sapiens
Procedure: Screening of cytotoxic activity against a panel of sixty human tumor cell lines The selected compounds by NCI were evaluated for their anticancer activity in a two- stage process. […] Then, the output from the single dose screen is reported as a mean graph. […] Assay protocol. […] For a typical screening experiment, cells are inoculated into 96 well microtiter plates in 100 µL at plating densities ranging from 5000 to 40,000 cells/well depending on the doubling time of individual cell lines. […] After 24 h, two plates of each cell line are fixed in situ with TCA, to represent a measurement of the cell population for each cell line at the time of drug addition (Tz). The experimental drugs are solubilized in dimethyl sulfoxide at 400-fold the desired final maximum test concentration and stored frozen prior to use. At the time of drug addition, an aliquot of frozen concentrate is thawed and diluted to twice the desired final maximum test concentration with complete medium containing 50 µg/mL gentamicin. Additional four, 10-fold or ½ log serial dilutions are made to provide a total of five drug concentrations plus control. Aliquots of 100 mL of these different drug dilutions are added to the appropriate microtiter wells already containing […] of medium, resulting in the required final drug concentrations. […] For adherent cells, the assay is terminated by the addition of cold TCA. […] The supernatant is discarded, and the plates are washed five times with tap water and air dried. Sulforhodamine B (SRB) solution ([…]) at 0.4% (w/v) in 1% acetic acid is added to each well, and plates are incubated for 10 min at room temperature. After staining, unbound dye is removed by washing five times with 1% acetic acid and the plates are air dried. […] Using the seven absorbance measurements [time zero, (Tz), control growth, (C), and test growth in the presence of drug at the five concentration levels (Ti)], the percentage growth is calculated at each of the drug concentrations levels. Percentage growth inhibition is calculated as: [(Ti Tz)/(C–Tz)] x 100 for concentrations for which Ti>/=Tz and [(Ti-Tz)/Tz] x 100 for concentrations for which Ti < Tz. Three dose response parameters are calculated for each experimental agent. […] The drug concentration resulting in total growth inhibition (TGI) is calculated from Ti = Tz. […] Values are calculated for each of these three parameters if the level of activity is reached; however, if the effect is not reached or is exceeded, the value for that parameter is expressed as greater or less than the maximum or minimum concentration tested.

[24] = mean over NCI 60 cell lines, > 100% = lethal effect, read-out: mean growth inhibition % (GI%)
[25] = mean over NCI panel of 60 tumor cell lines, read-out: Mean growth inhibition %

COc1ccc(-c2nc3cc(C(=O)NN=Cc4cccc(O)c4)ccc3[nH]2)cc1 [8i, N'-(3-Hydroxybenzylidene)-2-(4-methoxyphenyl)-1H-benzo[d]imidazole-5-carbohydrazide]
inhibition at 10 µM [1]: 50.8% | inhibition at 10 µM [2]: < 5% | inhibition at 10 µM [3]: 38.1% | inhibition at 10 µM [4]: 11.2% | inhibition at 10 µM [5]: 14.9% | inhibition at 10 µM [6]: 10.5% | inhibition at 10 µM [7]: > 100% | inhibition at 10 µM [8]: 47.4% | inhibition at 10 µM [9]: 32.4% | inhibition at 10 µM [10]: < 5% | inhibition at 10 µM [11]: 32.7% | inhibition at 10 µM [12]: 81.9% | inhibition at 10 µM [13]: 42.8% | inhibition at 10 µM [14]: 88.2% | inhibition at 10 µM [15]: 6.72% | inhibition at 10 µM [16]: 52.6% | inhibition at 10 µM [17]: 54.6% | inhibition at 10 µM [18]: 5.16% | inhibition at 10 µM [19]: 53.3% | inhibition at 10 µM [20]: 79% | inhibition at 10 µM [21]: 55.1% | inhibition at 10 µM [22]: 23.4% | inhibition at 10 µM [23, 24]: 33.1% | inhibition at 10 µM [23, 25]: 33.1%

COc1cccc(C=NNC(=O)c2ccc3[nH]c(-c4ccccc4)nc3c2)c1O [8d, N'-(2-hydroxy-3-methoxybenzylidene)-2-phenyl-1H-benzo[d]imidazole-5-carbohydrazide]
inhibition at 10 µM [1]: 99.5% | GI50 ([1]; UACC-62, Melanoma, five-dose): 1220 nM | inhibition at 10 µM [2]: 63.2% | GI50 ([2]; OVCAR-5, Ovarian cancer, five-dose): 2770 nM | inhibition at 10 µM [3]: > 100% | GI50 ([3]; OVCAR-8, Ovarian cancer, five-dose): 1620 nM | inhibition at 10 µM [4]: 79.8% | GI50 ([4]; A549/ATCC, Non-small cell lung cancer, five-dose): 3390 nM | inhibition at 10 µM [5]: 98.5% | GI50 ([5]; HCC-2998, Colon cancer, five-dose): 1790 nM | inhibition at 10 µM [6]: 98.5% | GI50 ([6]; UO-31, Renal cancer, five-dose): 2340 nM | inhibition at 10 µM [7]: > 100% | GI50 ([7]; MALME-3 M, Melanoma, five-dose): 1370 nM | inhibition at 10 µM [8]: > 100% | GI50 ([8]; UACC-257, Melanoma, five-dose): 2340 nM | GI50 ([9]; COLO 205, Colon cancer, five-dose): 2340 nM | inhibition at 10 µM [10]: 50.6% | GI50 ([10]; TK-10, Renal cancer, five-dose): 4780 nM | inhibition at 10 µM [11]: 96.6% | GI50 ([11]; BT-549, Breast cancer, five-dose): 1520 nM | inhibition at 10 µM [12]: 77% | GI50 ([12]; SR, Leukemia, five-dose): 1800 nM | GI50 [13]: 1840 nM | inhibition at 10 µM [13]: 97.4% | inhibition at 10 µM [14]: 98.1% | GI50 ([14]; MCF7, Breast cancer, five-dose): 1060 nM | inhibition at 10 µM [15]: 70.8% | GI50 ([15]; SW-620, Colon cancer, five-dose): 3770 nM | inhibition at 10 µM [16]: 92.9% | GI50 ([16]; HS 578 T, Breast cancer, five-dose): 620 nM | inhibition at 10 µM [17]: > 100% | GI50 ([17]; MDA-MB-468, Breast cancer, five-dose): 890 nM | inhibition at 10 µM [18]: 91.6% | GI50 ([18]; CAKI-1, Renal cancer, five-dose): 2680 nM | inhibition at 10 µM [19]: > 100% | GI50 ([19]; SF-539, CNS cancer, five-dose): 1310 nM | inhibition at 10 µM [20]: 65.8% | GI50 ([20]; MOLT-4, Leukemia, five-dose): 2060 nM | inhibition at 10 µM [21]: 90% | GI50 ([21]; HL-60(TB), Leukemia, five-dose): 2420 nM | inhibition at 10 µM [22]: 86% | GI50 ([22]; 786–0, Renal cancer, five-dose): 2470 nM | inhibition at 10 µM [23, 24]: 92.5% | GI50 ([23]; mean over NCI cancer cell lines, five-dose): 2620 nM | inhibition at 10 µM [23, 25]: 92.5%

COc1ccc(-c2nc3cc(C(=O)NN=Cc4cc(OC)ccc4OC)ccc3[nH]2)cc1 [8m, N'-(2,5-Dimethoxybenzylidene)-2-(4-methoxyphenyl)-1H-benzo[d]imidazole-5-carbohydrazide]
inhibition at 10 µM [1]: 6.39% | inhibition at 10 µM [2]: < 5% | inhibition at 10 µM [3]: 23.6% | inhibition at 10 µM [4]: 13.7% | inhibition at 10 µM [5]: < 5% | inhibition at 10 µM [6]: 9.12% | inhibition at 10 µM [7]: 18.3% | inhibition at 10 µM [8]: 14.3% | inhibition at 10 µM [9]: < 5% | inhibition at 10 µM [10]: < 5% | inhibition at 10 µM [11]: 17.2% | inhibition at 10 µM [12]: 28.5% | inhibition at 10 µM [13]: 22.3% | inhibition at 10 µM [14]: 20.6% | inhibition at 10 µM [15]: < 5% | inhibition at 10 µM [16]: < 5% | inhibition at 10 µM [17]: 16.2% | inhibition at 10 µM [18]: < 5% | inhibition at 10 µM [19]: 32.6% | inhibition at 10 µM [20]: 35.8% | inhibition at 10 µM [21]: 18.8% | inhibition at 10 µM [22]: 29% | inhibition at 10 µM [23, 24]: 10.9% | inhibition at 10 µM [23, 25]: 10.9%

COc1ccc(-c2nc3cc(C(=O)NN=Cc4cc(OC)c(OC)c(OC)c4)ccc3[nH]2)cc1 [8n, 2-(4-Methoxyphenyl)-N'-(3,4,5-trimethoxybenzylidene)-1H-benzo[d]imidazole-5-carbohydrazide]
inhibition at 10 µM [1]: 68.5% | inhibition at 10 µM [2]: < 5% | inhibition at 10 µM [3]: 15% | inhibition at 10 µM [4]: < 5% | inhibition at 10 µM [5]: < 5% | inhibition at 10 µM [6]: 21.8% | inhibition at 10 µM [7]: 76.8% | inhibition at 10 µM [8]: 25.6% | inhibition at 10 µM [9]: 33.7% | inhibition at 10 µM [10]: < 5% | inhibition at 10 µM [11]: < 5% | inhibition at 10 µM [12]: 26.9% | inhibition at 10 µM [13]: 23.4% | inhibition at 10 µM [14]: 73.1% | inhibition at 10 µM [15]: < 5% | inhibition at 10 µM [16]: 37.7% | inhibition at 10 µM [17]: < 5% | inhibition at 10 µM [18]: 23.8% | inhibition at 10 µM [19]: 24.4% | inhibition at 10 µM [20]: 22.1% | inhibition at 10 µM [21]: < 5% | inhibition at 10 µM [22]: < 5% | inhibition at 10 µM [23, 24]: 13.6% | inhibition at 10 µM [23, 25]: 13.6%

Source: PMC10893631, “Receptor-based pharmacophore modeling, molecular docking, synthesis and biological evaluation of novel VEGFR-2, FGFR-1, and BRAF multi-kinase inhibitors” (BMC Chemistry, 2024)
